Where a name gives a salt, the structure may show the parent alone.
Target: T1, human TRPC6 (Homo sapiens, UniProt Q9Y210)
T1 construct: expressed in transfected cells
T1 sequence (Q9Y210 1-931): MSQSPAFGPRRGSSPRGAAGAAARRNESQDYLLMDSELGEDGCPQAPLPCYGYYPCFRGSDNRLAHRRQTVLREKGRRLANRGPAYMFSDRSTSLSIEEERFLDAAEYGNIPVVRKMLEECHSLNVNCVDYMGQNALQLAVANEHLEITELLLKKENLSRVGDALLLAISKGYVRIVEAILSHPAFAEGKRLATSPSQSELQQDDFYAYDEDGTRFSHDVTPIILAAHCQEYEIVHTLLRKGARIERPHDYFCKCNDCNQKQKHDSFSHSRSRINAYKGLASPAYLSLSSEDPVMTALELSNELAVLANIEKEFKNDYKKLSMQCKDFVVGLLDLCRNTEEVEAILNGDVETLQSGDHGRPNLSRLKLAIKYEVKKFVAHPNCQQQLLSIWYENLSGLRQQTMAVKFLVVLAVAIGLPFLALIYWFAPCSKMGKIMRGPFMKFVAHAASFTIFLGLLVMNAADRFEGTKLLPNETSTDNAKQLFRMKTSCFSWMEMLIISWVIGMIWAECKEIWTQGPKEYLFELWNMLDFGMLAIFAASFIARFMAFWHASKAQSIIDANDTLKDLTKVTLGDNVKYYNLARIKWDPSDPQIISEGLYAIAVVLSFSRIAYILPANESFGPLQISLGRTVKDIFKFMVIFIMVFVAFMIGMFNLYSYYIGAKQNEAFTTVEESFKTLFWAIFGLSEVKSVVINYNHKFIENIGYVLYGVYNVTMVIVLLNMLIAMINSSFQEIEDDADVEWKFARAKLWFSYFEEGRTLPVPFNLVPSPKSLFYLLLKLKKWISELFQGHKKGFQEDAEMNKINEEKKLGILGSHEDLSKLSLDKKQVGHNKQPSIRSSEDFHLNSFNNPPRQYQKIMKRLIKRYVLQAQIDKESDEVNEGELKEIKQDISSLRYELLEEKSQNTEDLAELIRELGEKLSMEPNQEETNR
Test: TRPC6 calcium flux assay (FLIPR, OAG-stimulated calcium influx)
Type: cell-based
Conditions: HEK293 cells stably transfected with human TRPC6, read-out: hTRPC6 Potency
Outline: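 HEK293 cells stably expressing human TRPC6, loaded with calcium dye 90–120 min at RT, then given compound for 25 min before OAG (50 uM final, 0.5% DMSO) in HEPES buffer pH 7.2 with 2 mM CaCl2. Background-subtracted FLIPR peak over 180 s normalized to OAG vs buffer; IC50 from dose plot.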

IC50 [nM] | SMILES
406 | CC[C@@H](c1ccc(C#N)cn1)n1c(N2CCC[C@H](N)C2)nc2ccccc21 [Example 300, 6-((S)-1-(2-((S)-3-aminopiperidin-1-yl)-1H-benzo[d]imidazol-1-yl)propyl)nicotinonitrile hydrochloride]
0.956 | N#Cc1ccc(Cn2c(N3CC[C@@H](F)[C@H](N)C3)nc3ccc(OC(F)(F)F)cc32)nc1 [Example 19, 6-((2-((3R,4R)-3-amino-4-fluoropiperidin-1-yl)-6-(trifluoromethoxy)-1H-benzo[d]imidazol-1-yl)methyl)nicotinonitrile]
933 | N#CC1CN(C(=O)Cn2c(N3CC[C@@H](F)[C@H](N)C3)nc3cc(F)c(F)cc32)C1 [Example 426, 1-(2-(2-((3R,4R)-3-amino-4-fluoropiperidin-1-yl)-5,6-difluoro-1H-benzo[d]imidazol-1-yl)acetyl)azetidine-3-carbonitrile]
> 3750 | CN(CC(F)(F)F)C(=O)Cn1c(N2CC[C@@H](CN)C2)nc2ccc(F)cc21 [Example 491, (S)-2-(2-(3-(aminomethyl)pyrrolidin-1-yl)-6-fluoro-1H-benzo[d]imidazol-1-yl)-N-methyl-N-(2,2,2-trifluoroethyl)acetamide]
5.07 | N[C@@H]1CN(c2nc3cc(F)c(F)cc3n2[C@@H]2CCN(c3ccc(Cl)cc3)C2=O)CC[C@H]1F [Example 248, (R)-3-(2-((3R,4R)-3-amino-4-fluoropiperidin-1-yl)-5,6-difluoro-1H-benzo[d]imidazol-1-yl)-1-(4-chlorophenyl)pyrrolidin-2-one]
10.7 | N#Cc1ccc2nc(N3CC[C@H](F)[C@H](N)C3)n(CC(=O)N3CCC3)c2c1 [Example 287, 2-((3R,4S)-3-amino-4-fluoro-1-piperidinyl)-1-(2-(1-azetidinyl)-2-oxoethyl)-1H-benzimidazole-6-carbonitrile]
1360 | C[C@H](c1ccc(C#N)cc1)n1c(N2CC[C@H](F)[C@H](N)C2)nc2ccccc21 [Example 317, 4-((R)-1-(2-((3R,4S)-3-amino-4-fluoropiperidin-1-yl)-1H-benzo[d]imidazol-1-yl)ethyl)benzonitrile hydrochloride]
1.5 | Cc1cc(Cn2c(N3CC[C@@H](F)[C@H](N)C3)nc3cc(F)c(F)cc32)ccc1C#N (stereo in doubt) [Example 345, 4-((2-((3R,4R)-3-amino-4-fluoro-1-piperidinyl)-5,6-difluoro-1H-benzimidazol-1-yl)methyl)-2-methylbenzonitrile]
2.04 | C[C@@H](c1ccc(Cl)cn1)n1c(N2CC[C@@H](F)[C@H](N)C2)nc2ccc(Cl)cc21 [Example 222, (3R,4R)-1-(6-chloro-1-((S)-1-(5-chloropyridin-2-yl)ethyl)-1H-benzo[d]imidazol-2-yl)-4-fluoropiperidin-3-amine hydrochloride]
37.7 | C[C@@H](c1ccc(C#N)cc1)n1c(N2CC[C@H](F)[C@H](N)C2)nc2ccccc21 [Example 318, 4-((S)-1-(2-((3R,4S)-3-amino-4-fluoropiperidin-1-yl)-1H-benzo[d]imidazol-1-yl)ethyl)benzonitrile hydrochloride]
0.446 | Cc1cc2c(cc1F)nc(N1CC[C@@H](F)[C@H](N)C1)n2Cc1ccc(C#N)cn1 [Example 115, 6-((2-((3R,4R)-3-amino-4-fluoro-1-piperidinyl)-5-fluoro-6-methyl-1H-benzimidazol-1-yl)methyl)-3-pyridinecarbonitrile]
6.1 | Cc1cnc(Cn2c(N3CC[C@@H](F)[C@H](N)C3)nc3cc(F)c(F)cc32)s1 [Example 551, (3R,4R)-1-(5,6-difluoro-1-((5-methylthiazol-2-yl)methyl)-1H-benzo[d]imidazol-2-yl)-4-fluoropiperidin-3-amine]
1.5 | CCOc1ccc2nc(N3CC[C@@H](F)C(N)C3)n(Cc3ccc(C#N)cc3)c2c1 (stereo in doubt) [Example 414, 4-((2-((3R,4R)-3-amino-4-fluoro-1-piperidinyl)-6-ethoxy-1H-benzimidazol-1-yl)methyl)benzonitrile]
16.3 | N#Cc1ccc(Cn2c(N3CC[C@@H](F)[C@H](N)C3)nc3nc(C(F)(F)F)ccc32)nc1 [Example 458, 6-((2-((3R,4R)-3-amino-4-fluoropiperidin-1-yl)-5-(trifluoromethyl)-1H-imidazo[4,5-b]pyridin-1-yl)methyl)nicotinonitrile]
> 1750 | CN(CC(F)(F)F)C(=O)Cn1c(N2CCC(F)(CN)C2)nc2ccc(F)cc21 (stereo not shown) [Example 486, 2-(2-(3-(aminomethyl)-3-fluoropyrrolidin-1-yl)-6-fluoro-1H-benzo[d]imidazol-1-yl)-N-methyl-N-(2,2,2-trifluoroethyl)acetamide]
102 | CC1CN(C(=O)Cn2c(N3CC[C@@H](F)[C@H](N)C3)nc3cc(F)c(F)cc32)CCO1 (mixture of isomers) [Example 507]
81.4 | N#Cc1ccc(Cn2c(N3C[C@@H]4C[C@]4(CN)C3)nc3ccccc32)nc1 [Example 75, 6-((2-((1S,5R)-1-(aminomethyl)-3-azabicyclo[3.1.0]hexan-3-yl)-1H-benzo[d]imidazol-1-yl)methyl)nicotinonitrile hydrochloride]
> 3750 | N[C@@H]1CN(c2nc3ccc(F)cc3n2CC(=O)N[C@@H]2CCOC2)CC[C@H]1F [Example 676, 2-(2-((3R,4R)-3-amino-4-fluoropiperidin-1-yl)-6-fluoro-1H-benzo[d]imidazol-1-yl)-N-((R)-tetrahydrofuran-3-yl)acetamide]
2840 | C[C@@H]1CCN(c2nc3ccccc3n2Cc2ccc(C#N)cc2)C[C@@H]1N [Example 163, 4-((2-((3R,4R)-3-amino-4-methylpiperidin-1-yl)-1H-benzo[d]imidazol-1-yl)methyl)benzonitrile]
0.328 | N[C@@H]1CN(c2nc3cc(F)c(F)cc3n2Cc2ccc(Cl)cn2)CC[C@H]1F [Example 227, (3R,4R)-1-(1-((5-chloropyridin-2-yl)methyl)-5,6-difluoro-1H-benzo[d]imidazol-2-yl)-4-fluoropiperidin-3-amine hydrochloride]
> 1750 | N[C@@H]1CN(c2nc3cc(F)c(F)cc3n2CC(=O)N2CCC(C(=O)N3CCCCCC3)CC2)CC[C@H]1F [Example 537, 2-(2-((3R,4R)-3-amino-4-fluoropiperidin-1-yl)-5,6-difluoro-1H-benzo[d]imidazol-1-yl)-1-(4-(azepane-1-carbonyl)piperidin-1-yl)ethan-1-one]
319 | N#Cc1ccc(Cn2c(N3CCC[C@@H](N)C3)nc3ccccc32)c(F)c1 [Example 383, (R)-4-((2-(3-aminopiperidin-1-yl)-1H-benzo[d]imidazol-1-yl)methyl)-3-fluorobenzonitrile]
23.8 | CN[C@@H]1CN(c2nc3ccc(C#N)cc3n2Cc2ncc(Cl)cn2)CC[C@H]1F [Example 283, 1-((5-chloro-2-pyrimidinyl)methyl)-2-((3R,4R)-4-fluoro-3-(methylamino)-1-piperidinyl)-1H-benzimidazole-6-carbonitrile]
3350 | CC1(O)CCN(C(=O)Cn2c(N3CC[C@@H](F)[C@H](N)C3)nc3cc(F)c(F)cc32)C1 (stereo partly drawn) [Example 648, 2-(2-((3R,4R)-3-amino-4-fluoropiperidin-1-yl)-5,6-difluoro-1H-benzo[d]imidazol-1-yl)-1-(3-hydroxy-3-methylpyrrolidin-1-yl)ethanone]
161 | N#Cc1ccc(Cn2c(N3CCC4CCN[C@H]4C3)nc3ccccc32)nc1 (stereo partly drawn) [Example 26, 6-((2-((3aS,7aR)-hexahydro-1H-pyrrolo[2,3-c]pyridin-6(2H)-yl)-1H-benzo[d]imidazol-1-yl)methyl)nicotinointrile]
6.06 | N#Cc1ccc(Cn2c(N3CCC(F)(F)[C@H](N)C3)nc3c(Cl)cccc32)nc1 [Example 10, (R)-6-((2-(3-amino-4,4-difluoropiperidin-1-yl)-4-chloro-1H-benzo[d]imidazol-1-yl)methyl)nicotinonitrile]
33.2 | N[C@@H]1CN(c2nc3cc(F)c(F)cc3n2CC(=O)N(CCO)C2CC2)CC[C@H]1F [Example 617, 2-(2-((3R,4R)-3-amino-4-fluoropiperidin-1-yl)-5,6-difluoro-1H-benzo[d]imidazol-1-yl)-N-cyclopropyl-N-(2-hydroxyethyl)acetamide]

SMILES | IC50 [nM]
CC(C)(C)OC1CN(C(=O)Cn2c(N3CC[C@@H](F)[C@H](N)C3)nc3cc(F)c(F)cc32)C1 [Example 427, 2-(2-((3R,4R)-3-amino-4-fluoropiperidin-1-yl)-5,6-difluoro-1H-benzo[d]imidazol-1-yl)-1-(3-(tert-butoxy)azetidin-1-yl)ethan-1-one] | > 1750

Reference: US11332459B2 (TEIJIN PHARMA LIMITED, priority 2017, dated 2022)
